Tests used:
Format in all cases: biochemical
[1] = test system: lipase; test: Lipase activity retention in detergent use solution (4000 ppm, 5 GPG water; p-nitrophenyl valerate, TRIS buffer pH 8.0); details: base formula
Protocol: The enzyme […] collected up to 4 hours, after a use solution was generated from the detergent composition. During the tests, the samples at different time points were collected and immediately frozen in an acetone/dry ice bath and stored in −80° C. before the activity of the enzyme was evaluated. For the use of such an assay, t=0 min was the reference point for 100% enzyme activity.
(§1) Assays of enzyme activity in formulations (% retention) were conducted to simulate a presoak condition in a beaker using the chemistry, temperature, and pH conditions relevant to manual warewash or presoak applications. Enzyme activity is an indicator of the stability of the enzyme in the detergent, specifically in an aqueous use solution within a sump (which is under conditions of high pH, temperature and dilution).
(§2) Enzyme activity under presoak or manual warewash conditions was traced quantitatively using a standard protease assay. Samples were prepared under bench top conditions, whereby the use solution from a detergent composition or detergent was obtained and maintained at a presoak or manual warewash temperature in a stirring water bath. After the time course for assessing enzyme stability is initiated, aliquots were taken at various time points and flash-frozen. A time=0 sample was prepared for each series by dissolving the detergent formulation at room temperature, mixing thoroughly, and flash freezing. Samples were thawed and diluted as necessary in an assay buffer usually for use in the protease assay. A glycine buffer at pH 9.0 is used here. The assay monitored the direct reaction of the protease on a small, commercially available peptidyl substrate, with liberation of the product providing correlation to the active enzyme content. The product was detected using a plate reader with an appreciable dynamic range (upper absorbance limit of the instrument >3.5). Enzyme activity levels were assessed relative to a calibration curve with average values for replicate tests used to map protease stability under presoak or manual warewash use conditions. Enzyme retention at each time point was calculated as the % enzyme activity relative to the time=0 sample.
The analysis by lipase and amylase assay was conducted similarly, except with a different substrate and buffers. For lipase activity, the substrate is p-nitrophenyl valerate, and for amylase, the substrate is an ethylidene substrate (EPS). The buffer used in lipase assay is TRIS (Tris(hydroxymethyl)aminomethane) buffer at pH 8.0, and in amylase assay HEPES (4-(2-hydroxyethyl)-1-piperazineethanesulfonic acid) buffer at pH 8.0.

[2] = test system: protease; test: Protease activity retention in detergent use solution (4000 ppm, 5 GPG water; peptidyl substrate, glycine buffer pH 9.0); details: base formula; for Relative Protease Enzyme Activity: use solution at 120° F.
Protocol: (§3) The enzyme activities in the detergents with different phosphonate levels were tested at 4000 ppm in 5 grains per gallon (GPG) water at 120° F. with various time points collected up to 4 hours, after a use solution was generated from the detergent composition. During the tests, the samples at different time points were collected and immediately frozen in an acetone/dry ice bath and stored in −80° C. before the activity of the enzyme was evaluated. For the use of such an assay, t=0 min was the reference point for 100% enzyme activity.
as §1
The analysis by protease assay was conducted as follows. For the assays, a detergent composition was used to generate an aqueous use solution evaluated herein.
as §2

[3] = test system: enzyme (protease, amylase, lipase); test: Overall effects of phosphonates on enzyme activity (Table 3); details: overall effect of the phosphonate on enzyme activity in the detergent use solution
Protocol: as §3, §1
The relative enzyme activities in a use solution of the tested detergent compositions containing a different phosphonate at different concentrations over a period time are listed in Table 4A-Table 4E, Table 5A-Table 5E, and Table 6A-Table 6F.

NCP(=O)(O)O [AMPA, Aminomethyl phosphonic acid]
Relative Lipase Enzyme Activity ([1]; phosphonate 0.6 wt-%, use solution at 120º F., time 0 min): 100.00%
Relative Lipase Enzyme Activity ([1]; phosphonate 0.6 wt-%, use solution at 120º F., time 5 min): 80.17%
Relative Lipase Enzyme Activity ([1]; phosphonate 0.6 wt-%, use solution at 120º F., time 10 min): 64.48%
Relative Lipase Enzyme Activity ([1]; phosphonate 0.6 wt-%, use solution at 120º F., time 20 min): 49.45%
Relative Lipase Enzyme Activity ([1]; phosphonate 0.6 wt-%, use solution at 120º F., time 40 min): 37.77%
Relative Lipase Enzyme Activity ([1]; phosphonate 0.6 wt-%, use solution at 120º F., time 60 min): 26.82%
Relative Lipase Enzyme Activity ([1]; phosphonate 0.6 wt-%, use solution at 120º F., time 90 min): 19.59%
Relative Lipase Enzyme Activity ([1]; phosphonate 0.6 wt-%, use solution at 120º F., time 120 min): 15.84%
Relative Lipase Enzyme Activity ([1]; phosphonate 0.6 wt-%, use solution at 120º F., time 150 min): 15.01%
Relative Lipase Enzyme Activity ([1]; phosphonate 0.6 wt-%, use solution at 120º F., time 180 min): 13.23%
Relative Lipase Enzyme Activity ([1]; phosphonate 0.6 wt-%, use solution at 120º F., time 210 min): 12.05%
Relative Lipase Enzyme Activity ([1]; phosphonate 0.6 wt-%, use solution at 120º F., time 240 min): 11.16%
Relative Lipase Enzyme Activity ([1]; phosphonate at 0.1% elemental phosphorus, at 120º F. or at room temperature (as titled), time 0 min): 100.00%
Relative Lipase Enzyme Activity ([1]; phosphonate at 0.1% elemental phosphorus, at 120º F. or at room temperature (as titled), time 5 min): 79.03%
Relative Lipase Enzyme Activity ([1]; phosphonate at 0.1% elemental phosphorus, at 120º F. or at room temperature (as titled), time 10 min): 77.51%
Relative Lipase Enzyme Activity ([1]; phosphonate at 0.1% elemental phosphorus, at 120º F. or at room temperature (as titled), time 20 min): 62.55%
Relative Lipase Enzyme Activity ([1]; phosphonate at 0.1% elemental phosphorus, at 120º F. or at room temperature (as titled), time 40 min): 53.26%
Relative Lipase Enzyme Activity ([1]; phosphonate at 0.1% elemental phosphorus, at 120º F. or at room temperature (as titled), time 60 min): 44.19%
Relative Lipase Enzyme Activity ([1]; phosphonate at 0.1% elemental phosphorus, at 120º F. or at room temperature (as titled), time 90 min): 33.99%
Relative Lipase Enzyme Activity ([1]; phosphonate at 0.1% elemental phosphorus, at 120º F. or at room temperature (as titled), time 120 min): 28.67%
Relative Lipase Enzyme Activity ([1]; phosphonate at 0.1% elemental phosphorus, at 120º F. or at room temperature (as titled), time 150 min): 23.85%
Relative Lipase Enzyme Activity ([1]; phosphonate at 0.1% elemental phosphorus, at 120º F. or at room temperature (as titled), time 180 min): 16.98%
Relative Lipase Enzyme Activity ([1]; phosphonate at 0.1% elemental phosphorus, at 120º F. or at room temperature (as titled), time 210 min): 17.74%
Relative Lipase Enzyme Activity ([1]; phosphonate at 0.1% elemental phosphorus, at 120º F. or at room temperature (as titled), time 240 min): 16.10%
protease stability ([2]; compared with ATMP, DGAP, PAPEMP, MEAP): improves protease stability, but to a lesser extent
Relative Protease Enzyme Activity ([2]; phosphonate 0.3 wt-%, lower half of Table 4A, time 5): 86.30%
Relative Protease Enzyme Activity ([2]; phosphonate 0.3 wt-%, lower half of Table 4A, time 20): 63.30%
Relative Protease Enzyme Activity ([2]; phosphonate 0.3 wt-%, lower half of Table 4A, time 90): 37.90%
Relative Protease Enzyme Activity ([2]; phosphonate 0.3 wt-%, lower half of Table 4A, time 120): 31.17%
Relative Protease Enzyme Activity ([2]; phosphonate 0.3 wt-%, lower half of Table 4A, time 150, unit not given): 28.70%
Relative Protease Enzyme Activity ([2]; phosphonate 0.3 wt-%, lower half of Table 4A, time 210): 22.72%
Relative Protease Enzyme Activity ([2]; phosphonate 0.3 wt-%, lower half of Table 4A, time '0'): 100.00%
Relative Protease Enzyme Activity ([2]; phosphonate 0.3 wt-%, lower half of Table 4A, time '40'): 51.37%
Relative Protease Enzyme Activity ([2]; phosphonate 0.3 wt-%, lower half of Table 4A, time 'Blank'): 85.83%
Relative Protease Enzyme Activity ([2]; phosphonate 0.3 wt-%, lower half of Table 4A, time row printed '10'): 78.58%
Relative Protease Enzyme Activity ([2]; phosphonate 0.3 wt-%, lower half of Table 4A, time row printed '60'): 44.31%
Relative Protease Enzyme Activity ([2]; phosphonate 0.3 wt-%, lower half of Table 4A, time row printed '180'): 25.64%
Relative Protease Enzyme Activity ([2]; phosphonate 0.6 wt-%, time 0 min): 100.00%
Relative Protease Enzyme Activity ([2]; phosphonate 0.6 wt-%, time 5 min): 109.27%
Relative Protease Enzyme Activity ([2]; phosphonate 0.6 wt-%, time 10 min): 94.52%
Relative Protease Enzyme Activity ([2]; phosphonate 0.6 wt-%, time 20 min): 84.97%
Relative Protease Enzyme Activity ([2]; phosphonate 0.6 wt-%, time 40 min): 77.92%
Relative Protease Enzyme Activity ([2]; phosphonate 0.6 wt-%, time 60 min): 75.86%
Relative Protease Enzyme Activity ([2]; phosphonate 0.6 wt-%, time 90 min): 62.50%
Relative Protease Enzyme Activity ([2]; phosphonate 0.6 wt-%, time 120 min): 54.43%
Relative Protease Enzyme Activity ([2]; phosphonate 0.6 wt-%, time 150 min): 51.19%
Relative Protease Enzyme Activity ([2]; phosphonate 0.6 wt-%, time 180 min): 47.47%
Relative Protease Enzyme Activity ([2]; phosphonate 0.6 wt-%, time 210 min): 43.42%
Relative Protease Enzyme Activity ([2]; phosphonate 0.6 wt-%, time 240 min): 40.00%
Relative Protease Enzyme Activity ([2]; phosphonate at 0.1% elemental phosphorus, time 0 min): 107.11%
Relative Protease Enzyme Activity ([2]; phosphonate at 0.1% elemental phosphorus, time 5 min): 100.00%
Relative Protease Enzyme Activity ([2]; phosphonate at 0.1% elemental phosphorus, time 10 min): 99.75%
Relative Protease Enzyme Activity ([2]; phosphonate at 0.1% elemental phosphorus, time 20 min): 84.62%
Relative Protease Enzyme Activity ([2]; phosphonate at 0.1% elemental phosphorus, time 40 min): 70.58%
Relative Protease Enzyme Activity ([2]; phosphonate at 0.1% elemental phosphorus, time 60 min): 62.19%
Relative Protease Enzyme Activity ([2]; phosphonate at 0.1% elemental phosphorus, time 90 min): 49.17%
Relative Protease Enzyme Activity ([2]; phosphonate at 0.1% elemental phosphorus, time 120 min): 43.34%
Relative Protease Enzyme Activity ([2]; phosphonate at 0.1% elemental phosphorus, time 150 min): 38.26%
Relative Protease Enzyme Activity ([2]; phosphonate at 0.1% elemental phosphorus, time 180 min): 34.55%
Relative Protease Enzyme Activity ([2]; phosphonate at 0.1% elemental phosphorus, time 210 min): 32.27%
Relative Protease Enzyme Activity ([2]; phosphonate at 0.1% elemental phosphorus, time 240 min): 28.25%
Stability (effects on enzyme activity) [3]: Yes
